Here are results for one compound from publication PMC4865823, “Plant phosphomannose isomerase as a selectable marker for rice transformation” (Scientific Reports, 2016).

As usually defined, the Km is the substrate concentration at which the rate is half of its maximum.

The test system of this assay is T1, OsPMI2 (GST-OsPMI2).
T1 construct: full CDS, N-terminal GST tag kept, E. coli Rosetta (DE3) pLysS; denatured from inclusion bodies and recovered
As to the kind of experiment: PGI/G6PDH-coupled assay, NADP reduction at […] nm, Lineweaver-Burk. Conditions: 50 mM Tris-HCl pH 7.5, 30 °C; M-6-P to F-6-P; enzyme recovered from denatured inclusion bodies. Format: biochemical, Oryza sativa subsp. japonica.

As for `O=P(O)(O)OC[C@H]1OC(O)[C@@H](O)[C@@H](O)[C@@H]1O` (stereo partly shown) [mannose-6-phosphate], the Km is 6.462 ± 0.0479 mM.
